Experimental data published in ChEMBL document CHEMBL5344442, “Antiviral Activity of Lipophilic Nucleoside Tetraphosphate Compounds” (J Med Chem, 2024).
One block for each compound: values may come before it.

Experiments:
[1] = Half life of the compound in PBS buffer at pH 7.3 by RP-18-HPLC analysis; type: physicochemical
[2] = system: Human immunodeficiency virus 1; assay: Antiviral activity against HIV-1 HE infected in human CEM/0 cells assessed as inhibition of virus-induced cytopathogenicity measured after 4 to 5 days by microscopic analysis; type: functional, organism-based; settings: Human immunodeficiency virus 1, HE, CCRF-CEM
[3] = system: Human immunodeficiency virus 2; assay: Antiviral activity against HIV-2 ROD infected in human CEM/0 cells assessed as inhibition of virus-induced cytopathogenicity measured after 4 to 5 days by microscopic analysis; type: functional, organism-based; settings: Human immunodeficiency virus 2, ROD, CCRF-CEM
[4] = system: Human immunodeficiency virus 2; assay: Antiviral activity against HIV-2 ROD infected in human CEM/TK- cells assessed as inhibition of virus-induced cytopathogenicity measured after 4 to 5 days by microscopic analysis; type: functional, organism-based; settings: Human immunodeficiency virus 2, ROD, CCRF-CEM
[5] = Selectivity index, ratio of CC50 for cytotoxicity against human CEM/0 cells to EC50 for antiviral activity against HIV-2 ROD infected in human CEM/0 cells; type: toxicity, cell-based; settings: read-out: Ratio CC50/EC50
[6] = Lipophilicity of the compound assessed as retention time by RP-18-HPLC analysis; type: physicochemical
[7] = Drug metabolism assessed as d4TTP metabolite formation in presence of pig liver esterase by RP-18-HPLC analysis; type: ADME, Sus scrofa; settings: isolated protein
[8] = Drug metabolism assessed as [hydroxy-[hydroxy-[hydroxy-[[(2S,5R)-5-(5-methyl-2,4-dioxo-pyrimidin-1-yl)-2,5-dihydrofuran-2-yl]methoxy]phosphoryl]oxy-phosphoryl]oxy-phosphoryl]oxy-octadecyl-phosphinic acid formation in presence of pig liver esterase by RP-18-HPLC analysis; type: ADME, Sus scrofa; settings: isolated protein
[9] = Drug metabolism in human CEM/0 cells assessed as [hydroxy-[hydroxy-[hydroxy-[[(2S,5R)-5-(5-methyl-2,4-dioxo-pyrimidin-1-yl)-2,5-dihydrofuran-2-yl]methoxy]phosphoryl]oxy-phosphoryl]oxy-phosphoryl]oxy-octadecyl-phosphinic acid formation by RP18-HPLC analysis; type: ADME, cell-based; settings: ccrf-cem
[10] = Drug metabolism in human CEM/0 cells assessed as d4TDP metabolite formation by RP18-HPLC analysis; type: ADME, cell-based; settings: ccrf-cem
[11] = Drug metabolism in human CEM/0 cells assessed as d4TTP metabolite formation by RP18-HPLC analysis; type: ADME, cell-based; settings: ccrf-cem
[12] = Cytotoxicity against human CEM/0 cells assessed as inhibition of cell proliferation; type: toxicity, cell-based, CCRF-CEM
[13] = Drug metabolism in PBS buffer assessed as d4TMP metabolite formation at pH 7.3 by RP-18-HPLC analysis; type: ADME
[14] = Drug metabolism in human CEM/0 cells assessed as half life of d4TTP by RP18-HPLC analysis; type: ADME, cell-based; settings: ccrf-cem
[15] = Drug metabolism assessed as [4-[[hydroxy-[hydroxy-[hydroxy-[hydroxy-[[(2S,5R)-5-(5-methyl-2,4-dioxo-pyrimidin-1-yl)-2,5-dihydrofuran-2-yl]methoxy]phosphoryl]oxy-phosphoryl]oxy-phosphoryl]oxy-phosphoryl]oxymethyl]phenyl]-decanoate formation in presence of pig liver esterase by RP-18-HPLC analysis; type: ADME, Sus scrofa; settings: isolated protein
[16] = Drug metabolism assessed as d4T4P metabolite formation in presence of pig liver esterase by RP-18-HPLC analysis; type: ADME, Sus scrofa; settings: isolated protein
[17] = Drug metabolism in human CEM/0 cells assessed as [4-[[hydroxy-[hydroxy-[hydroxy-[hydroxy-[[(2S,5R)-5-(5-methyl-2,4-dioxo-pyrimidin-1-yl)-2,5-dihydrofuran-2-yl]methoxy]phosphoryl]oxy-phosphoryl]oxy-phosphoryl]oxy-phosphoryl]oxymethyl]phenyl]-decanoate formation by RP18-HPLC analysis; type: ADME, cell-based; settings: ccrf-cem
[18] = Drug metabolism in human CEM/0 cells assessed as half life of d4T4P by RP18-HPLC analysis; type: ADME, cell-based; settings: ccrf-cem
[19] = Drug metabolism in citrate-stabilized human plasma assessed as [4-[[hydroxy-[hydroxy-[hydroxy-[hydroxy-[[(2S,5R)-5-(5-methyl-2,4-dioxo-pyrimidin-1-yl)-2,5-dihydrofuran-2-yl]methoxy]phosphoryl]oxy-phosphoryl]oxy-phosphoryl]oxy-phosphoryl]oxymethyl]phenyl]-decanoate formation by RP-18-HPLC analysis; type: ADME, cell-free
[20] = Drug metabolism in citrate-stabilized human plasma assessed as d4T formation by RP-18-HPLC analysis; type: ADME, cell-free
[21] = Half life of the compound in human CEM/0 extracts by RP-18-HPLC analysis; type: ADME, CCRF-CEM; settings: CEM/0 cell extracts
[22] = Stability of compound assessed as pig liver esterase mediated hydrolysis by measuring half life by RP-18-HPLC analysis; type: ADME, tissue-based, Sus scrofa
[23] = Drug metabolism in citrate-stabilized human plasma assessed as d4TTP formation by RP18-HPLC analysis; type: ADME, cell-free
[24] = Drug metabolism in citrate-stabilized human plasma assessed as d4TDP formation by RP18-HPLC analysis; type: ADME, cell-free
[25] = Drug metabolism in citrate-stabilized human plasma assessed as d4TMP formation by RP18-HPLC analysis; type: ADME, cell-free
[26] = Drug metabolism in citrate-stabilized human plasma assessed as [hydroxy-[hydroxy-[hydroxy-[[(2S,5R)-5-(5-methyl-2,4-dioxo-pyrimidin-1-yl)-2,5-dihydrofuran-2-yl]methoxy]phosphoryl]oxy-phosphoryl]oxy-phosphoryl] octadecyl hydrogen phosphate formation by RP18-HPLC analysis; type: ADME, cell-free
[27] = Drug metabolism in citrate-stabilized human plasma assessed as [hydroxy-[hydroxy-[hydroxy-[[(2S,5R)-5-(5-methyl-2,4-dioxo-pyrimidin-1-yl)-2,5-dihydrofuran-2-yl]methoxy]phosphoryl]oxy-phosphoryl]oxy-phosphoryl]oxy-octadecyl-phosphinic acid formation by RP18-HPLC analysis; type: ADME, cell-free
[28] = Drug metabolism assessed as [hydroxy-[hydroxy-[hydroxy-[[(2S,5R)-5-(5-methyl-2,4-dioxo-pyrimidin-1-yl)-2,5-dihydrofuran-2-yl]methoxy]phosphoryl]oxy-phosphoryl]oxy-phosphoryl] octadecyl hydrogen phosphate formation in presence of pig liver esterase by RP-18-HPLC analysis; type: ADME, Sus scrofa; settings: isolated protein
[29] = Drug metabolism in human CEM/0 cells assessed as [hydroxy-[hydroxy-[hydroxy-[[(2S,5R)-5-(5-methyl-2,4-dioxo-pyrimidin-1-yl)-2,5-dihydrofuran-2-yl]methoxy]phosphoryl]oxy-phosphoryl]oxy-phosphoryl] octadecyl hydrogen phosphate formation by RP18-HPLC analysis; type: ADME, cell-based; settings: ccrf-cem
[30] = Selectivity index, ratio of CC50 for cytotoxicity against human CEM/TK- cells to EC50 for antiviral activity against HIV-2 ROD infected in human CEM/TK- cells; type: toxicity, cell-based; settings: read-out: Ratio CC50/EC50

Structure (SMILES): CCCCCCCCCCCCCCCCCCP(=O)(OCc1ccc(OC(=O)CCCC)cc1)OP(=O)(O)OP(=O)(O)OC[C@@H]1C=C[C@H](n2cc(C)c(=O)[nH]c2=O)O1 (stereo partly drawn)
half-life [1]: 646 h
EC50 [2]: 7 nM
EC50 [3]: 21 nM
EC50 [4]: 42 nM
selectivity ratio [5]: 452

Structure (SMILES): CCCCOP(=O)(OCCCC)OP(=O)(O)OP(=O)(O)OP(=O)(O)OC[C@@H]1C=C[C@H](n2cc(C)c(=O)[nH]c2=O)O1
Retention_time [6]: 10.2 min

Structure (SMILES): CCCCCCCCCCCCCCCCOC(=O)Oc1ccc(COP(=O)(OCc2ccc(OC(=O)CCCC)cc2)OP(=O)(O)OP(=O)(O)OP(=O)(O)OC[C@@H]2C=C[C@H](n3cc(C)c(=O)[nH]c3=O)O2)cc1 (stereo partly drawn)
Retention_time [6]: 16 min

Structure (SMILES): CCCCCCCCCCCCCCCCCCP(=O)(OCc1ccc(OC(=O)CCCC)cc1)OP(=O)(O)OP(=O)(O)OP(=O)(O)OC[C@@H]1C=C[C@H](n2cc(C)c(=O)[nH]c2=O)O1 (stereo partly drawn)
Retention_time [6]: 15.2 min
Drug metabolism [7]: Metabolite_Detected
Drug metabolism [8]: Metabolite_Detected
Drug metabolism [9]: Metabolite_Detected
Drug metabolism [10]: Metabolite_Detected
EC50 [4]: 6 nM
Drug metabolism [11]: Metabolite_Detected

Structure (SMILES): Cc1cn([C@H]2C=C[C@@H](COP(=O)(O)OP(=O)(O)OP(=O)(O)OP(=O)(O)O)O2)c(=O)[nH]c1=O
Retention_time [6]: 10.2 min
selectivity ratio [5]: 454

Structure (SMILES): CCCCCCCCCCCCCCCCCCOP(=O)(OCc1ccc(OC(=O)CCCC)cc1)OP(=O)(O)OP(=O)(O)OC[C@@H]1C=C[C@H](n2cc(C)c(=O)[nH]c2=O)O1 (stereo partly drawn)
half-life [1]: 237 h
EC50 [2]: 180 nM
EC50 [3]: 160 nM
EC50 [4]: 170 nM
CC50 [12]: 13000 nM
selectivity ratio [5]: 76

Structure (SMILES): CCCCCCCCCC(=O)Oc1ccc(COP(=O)(OCc2ccc(OC(=O)CCCCCCCCC)cc2)OP(=O)(O)OP(=O)(O)OP(=O)(O)OC[C@@H]2C=C[C@H](n3cc(C)c(=O)[nH]c3=O)O2)cc1
Retention_time [6]: 15.2 min
Drug metabolism [7]: Metabolite_Detected
Drug metabolism [15]: Metabolite_Detected
Drug metabolism [16]: Metabolite_Detected
t1/2 [14]: 0.633 h
Drug metabolism [17]: Metabolite_Detected
t1/2 [18]: 0.367 h
Drug metabolism [19]: Metabolite_Detected
Drug metabolism [20]: Metabolite_Detected

Structure (SMILES): CCCCCCCCCC(=O)Oc1ccc(COP(=O)(OCc2ccc(OC(=O)CCCCCCCCC)cc2)OP(=O)(O)OP(=O)(O)OC[C@@H]2C=C[C@H](n3cc(C)c(=O)[nH]c3=O)O2)cc1
half-life [1]: 44 h
half-life [21]: 2.8 h
half-life [22]: 4.92 min
Retention_time [6]: 16.3 min

Structure (SMILES): CCCCCCCCCCCCCCCCCCP(=O)(OCCCC)OP(=O)(O)OP(=O)(O)OC[C@@H]1C=C[C@H](n2cc(C)c(=O)[nH]c2=O)O1 (stereo partly drawn)
EC50 [2]: 31 nM
EC50 [3]: 35 nM
EC50 [4]: 18 nM

Structure (SMILES): CCCCCCCCCCCCCCCCCCOP(=O)(OCCCCCCCCCCCCCCCCCC)OP(=O)(O)OP(=O)(O)OP(=O)(O)OC[C@@H]1C=C[C@H](n2cc(C)c(=O)[nH]c2=O)O1
Retention_time [6]: 20.7 min

Structure (SMILES): Cc1cn([C@H]2C=C[C@@H](CO)O2)c(=O)[nH]c1=O [STAVUDINE]
selectivity ratio [5]: 1
selectivity ratio [30]: 1

More lines, main results first:

Retention_time [6]: 15.2 min
Structure (SMILES): CCCCCCCCCCCCCCCCCCOP(=O)(OCC(CC)CCCC)OP(=O)(O)OP(=O)(O)OP(=O)(O)OC[C@@H]1C=C[C@H](n2cc(C)c(=O)[nH]c2=O)O1 (stereo partly drawn)

Retention_time [6]: 13.3 min
Structure (SMILES): CCCCCCCCCCCCCCCCCCOP(=O)(O)OP(=O)(O)OP(=O)(O)OP(=O)(O)OC[C@@H]1C=C[C@H](n2cc(C)c(=O)[nH]c2=O)O1

EC50 [2]: 70 nM
EC50 [3]: 41 nM
EC50 [4]: 32 nM
Structure (SMILES): CCCCCCCCCCCCCCCCCCOP(=O)(OCCCC)OP(=O)(O)OP(=O)(O)OC[C@@H]1C=C[C@H](n2cc(C)c(=O)[nH]c2=O)O1 (stereo partly drawn)

Retention_time [6]: 14.7 min
Structure (SMILES): CCCCCCCCCCCCOP(=O)(OCCCCCCCCCCCC)OP(=O)(O)OP(=O)(O)OP(=O)(O)OC[C@@H]1C=C[C@H](n2cc(C)c(=O)[nH]c2=O)O1

Retention_time [6]: 13.2 min
Structure (SMILES): CCCCCCCCCCCCCCCCCCP(=O)(O)OP(=O)(O)OP(=O)(O)OP(=O)(O)OC[C@@H]1C=C[C@H](n2cc(C)c(=O)[nH]c2=O)O1
selectivity ratio [5]: 105

Retention_time [6]: 14.5 min
Drug metabolism [13]: Metabolite_Detected
Drug metabolism [7]: Metabolite_Detected
t1/2 [14]: 0.633 h
Drug metabolism [10]: Metabolite_Detected
Structure (SMILES): CCCCCCCCCCCCCCCCCCOP(=O)(OCCCC)OP(=O)(O)OP(=O)(O)OP(=O)(O)OC[C@@H]1C=C[C@H](n2cc(C)c(=O)[nH]c2=O)O1 (stereo partly drawn)

Retention_time [6]: 14.4 min
Drug metabolism [13]: Metabolite_Detected
Drug metabolism [7]: Metabolite_Detected
t1/2 [14]: 0.633 h
Drug metabolism [10]: Metabolite_Detected
Drug metabolism [23]: Metabolite_Notdetected
Drug metabolism [24]: Metabolite_Notdetected
Drug metabolism [25]: Metabolite_Notdetected
Drug metabolism [26]: Metabolite_Notdetected
Drug metabolism [27]: Metabolite_Notdetected
Structure (SMILES): CCCCCCCCCCCCCCCCCCP(=O)(OCCCC)OP(=O)(O)OP(=O)(O)OP(=O)(O)OC[C@@H]1C=C[C@H](n2cc(C)c(=O)[nH]c2=O)O1 (stereo partly drawn)

Retention_time [6]: 15.1 min
Structure (SMILES): CCCCCCCCCCCCCCCCCCP(=O)(OCC(CC)CCCC)OP(=O)(O)OP(=O)(O)OP(=O)(O)OC[C@@H]1C=C[C@H](n2cc(C)c(=O)[nH]c2=O)O1 (stereo partly drawn)

Retention_time [6]: 15.3 min
Drug metabolism [7]: Metabolite_Detected
Drug metabolism [28]: Metabolite_Detected
Drug metabolism [29]: Metabolite_Detected
Drug metabolism [10]: Metabolite_Detected
Drug metabolism [26]: Metabolite_Detected
Drug metabolism [20]: Metabolite_Detected
Drug metabolism [11]: Metabolite_Detected
Structure (SMILES): CCCCCCCCCCCCCCCCCCOP(=O)(OCc1ccc(OC(=O)CCCC)cc1)OP(=O)(O)OP(=O)(O)OP(=O)(O)OC[C@@H]1C=C[C@H](n2cc(C)c(=O)[nH]c2=O)O1 (stereo partly drawn)
